Measurements as given in BindingDB's records for doi:10.1124/jpet.104.081224 (German Cancer Research Center, 2005).
pKi: −log10 of the molar value.

What was measured:
[1] = biological target: T1, Solute carrier organic anion transporter family member 1B3 (Homo sapiens, UniProt Q9NPD5)
T1 sequence (Q9NPD5 whole entry): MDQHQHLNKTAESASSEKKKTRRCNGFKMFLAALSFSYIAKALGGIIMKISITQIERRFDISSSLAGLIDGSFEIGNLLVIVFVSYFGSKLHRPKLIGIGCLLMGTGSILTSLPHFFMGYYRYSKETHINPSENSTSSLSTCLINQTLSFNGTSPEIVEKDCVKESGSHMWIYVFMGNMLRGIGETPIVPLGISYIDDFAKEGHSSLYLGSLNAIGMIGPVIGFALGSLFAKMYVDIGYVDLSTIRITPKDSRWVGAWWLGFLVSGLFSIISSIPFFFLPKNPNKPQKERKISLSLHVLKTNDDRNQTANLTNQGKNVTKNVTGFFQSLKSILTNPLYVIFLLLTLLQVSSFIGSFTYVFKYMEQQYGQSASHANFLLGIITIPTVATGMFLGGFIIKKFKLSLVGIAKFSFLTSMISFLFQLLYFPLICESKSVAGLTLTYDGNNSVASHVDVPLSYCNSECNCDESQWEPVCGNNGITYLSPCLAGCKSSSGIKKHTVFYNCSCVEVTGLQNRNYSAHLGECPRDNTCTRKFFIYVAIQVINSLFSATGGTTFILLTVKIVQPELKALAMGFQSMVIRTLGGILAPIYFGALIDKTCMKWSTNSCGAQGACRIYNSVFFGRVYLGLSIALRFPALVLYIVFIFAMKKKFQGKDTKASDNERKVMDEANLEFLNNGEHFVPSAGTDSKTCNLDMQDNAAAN

[2] = biological target: ATP-binding cassette sub-family C member 2 (Homo sapiens, UniProt Q92887)
Sequence of ATP-binding cassette sub-family C member 2 (Q92887 whole entry): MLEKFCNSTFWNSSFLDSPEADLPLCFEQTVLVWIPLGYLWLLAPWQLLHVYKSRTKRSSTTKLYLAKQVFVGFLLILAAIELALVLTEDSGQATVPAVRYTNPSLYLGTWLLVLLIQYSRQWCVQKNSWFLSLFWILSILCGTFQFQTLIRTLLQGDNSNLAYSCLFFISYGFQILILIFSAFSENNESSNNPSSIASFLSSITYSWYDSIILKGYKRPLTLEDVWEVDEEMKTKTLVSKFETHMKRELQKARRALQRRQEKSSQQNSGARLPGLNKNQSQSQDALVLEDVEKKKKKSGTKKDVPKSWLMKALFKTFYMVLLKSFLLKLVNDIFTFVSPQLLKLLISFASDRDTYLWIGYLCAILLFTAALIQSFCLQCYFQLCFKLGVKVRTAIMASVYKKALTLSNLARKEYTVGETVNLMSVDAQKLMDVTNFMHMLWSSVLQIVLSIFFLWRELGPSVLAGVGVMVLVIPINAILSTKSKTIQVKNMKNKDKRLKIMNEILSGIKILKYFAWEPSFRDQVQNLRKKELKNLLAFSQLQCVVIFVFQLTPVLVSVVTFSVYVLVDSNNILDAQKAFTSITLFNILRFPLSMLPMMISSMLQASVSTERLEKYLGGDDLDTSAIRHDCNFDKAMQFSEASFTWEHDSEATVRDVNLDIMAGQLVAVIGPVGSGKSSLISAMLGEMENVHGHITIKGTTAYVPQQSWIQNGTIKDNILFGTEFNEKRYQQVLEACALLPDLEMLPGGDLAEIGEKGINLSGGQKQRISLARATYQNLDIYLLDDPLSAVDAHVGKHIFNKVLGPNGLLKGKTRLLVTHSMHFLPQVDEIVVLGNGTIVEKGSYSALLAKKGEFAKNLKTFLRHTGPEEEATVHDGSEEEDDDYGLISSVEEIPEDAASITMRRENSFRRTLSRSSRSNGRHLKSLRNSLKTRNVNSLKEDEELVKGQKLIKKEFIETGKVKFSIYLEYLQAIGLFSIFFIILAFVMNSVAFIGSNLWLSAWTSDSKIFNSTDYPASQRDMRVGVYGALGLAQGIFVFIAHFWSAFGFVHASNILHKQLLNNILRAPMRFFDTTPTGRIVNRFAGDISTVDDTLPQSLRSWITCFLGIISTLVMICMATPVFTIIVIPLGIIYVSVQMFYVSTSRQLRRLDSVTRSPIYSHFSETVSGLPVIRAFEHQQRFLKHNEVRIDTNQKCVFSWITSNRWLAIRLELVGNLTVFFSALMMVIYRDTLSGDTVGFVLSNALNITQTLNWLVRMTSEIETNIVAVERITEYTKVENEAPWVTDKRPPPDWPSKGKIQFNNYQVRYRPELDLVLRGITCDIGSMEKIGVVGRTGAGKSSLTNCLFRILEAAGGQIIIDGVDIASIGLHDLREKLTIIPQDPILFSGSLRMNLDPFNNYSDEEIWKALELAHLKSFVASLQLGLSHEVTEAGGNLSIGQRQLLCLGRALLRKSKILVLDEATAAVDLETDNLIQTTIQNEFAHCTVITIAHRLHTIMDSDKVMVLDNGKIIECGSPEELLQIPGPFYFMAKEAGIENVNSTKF

Work on CN(C)C(=O)CCSC(SCCC(=O)O)c1cccc(C=Cc2ccc3ccc(Cl)cc3n2)c1 (configuration not stated) [NSC_60719] yielded a pKi [1] of 6.22 and a pKi [2] of 5.07.
